Data: PubChem BioAssay (NCI)
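A five-concentration, 48-hour dose response in 96-well plates underlies each endpoint, interpolated linearly between surrounding concentrations. TGI is the concentration that stops growth completely.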

Experiments:
Test in all cases: inhibition of tumour cell growth, NCI panel, 48 h
[1] = tested on: CAKI-1 renal
[2] = tested on: DLD-1 colon
[3] = tested on: DMS 114 small cell lung
[4] = tested on: EKVX NSCLC
[5] = tested on: HOP-18 NSCLC
[6] = tested on: KM20L2 colon
[7] = tested on: LXFL 529 NSCLC
[8] = tested on: M19-MEL melanoma
[9] = tested on: NCI-H460 lung
[10] = tested on: OVCAR-4 ovarian
[11] = tested on: SK-MEL-5 melanoma
[12] = tested on: SNB-78 CNS
[13] = tested on: DMS 273 small cell lung
[14] = tested on: XF 498 CNS
[15] = tested on: RXF-631 renal

SMILES	TGI [1]	TGI [2]	TGI [3]	TGI [4]	TGI [5]	TGI [6]	TGI [7]	TGI [8]	TGI [9]	TGI [10]	TGI [11]	TGI [12]	TGI [13]	TGI [14]	TGI [15]
CCc1nc2ccc(NCCN(C)C)c3c(=O)c4ccccc4n1c23	7.89 µM	9.88 µM	14.8 µM	6.78 µM	6.55 µM	6.31 µM	13.9 µM	10.4 µM	3.07 µM	4.35 µM	2.32 µM	19.3 µM			
CCOC(=O)N(c1ccccc1)N(CC)C(=O)/C(C)=N/Nc1ccc([N+](=O)[O-])cc1		30.7 µM	43.5 µM	39.8 µM	36.9 µM	31.3 µM	34.6 µM	31.2 µM		42.2 µM		58.9 µM	30 µM	33.4 µM	
CCOC(=O)Oc1ccc2c(c1)c(=O)c1c(NCCN(CC)CC)ccc3nnn2c31	2.63 µM			19.9 µM					9.44 µM	11.9 µM	16.1 µM				
Fc1cccc(F)c1C1SCc2nc3ccc(Cl)cc3n21 (configuration not stated)	> 100 µM			> 100 µM					> 100 µM	> 100 µM	> 100 µM				
Cn1c(N/N=C/c2ccccc2)nc(-c2ccc([N+](=O)[O-])cc2)c(C#N)c1=O	> 100 µM			> 100 µM					> 100 µM	> 100 µM	> 100 µM				
C(=C\N1CCCCC1)/c1nnnn1-c1ccccc1	38.2 µM			63.1 µM					> 100 µM	> 100 µM	58.9 µM				
COC(OC)[C@@H]1OC[C@@H](O)[C@@H]1n1cnc2c(N)ncnc21	> 100 µM			> 100 µM					> 100 µM	> 100 µM	> 100 µM				
S=C(Nc1ccc2cn[nH]c2c1)Nc1ccc2cn[nH]c2c1	> 100 µM			> 100 µM					> 100 µM	> 100 µM	> 100 µM				
NC(Cc1ccc(S(=O)(=O)O)cc1)C(=O)NC(Cc1ccc(S(=O)(=O)O)cc1)C(=O)O (configuration not stated)	> 100 µM			> 100 µM					> 100 µM	> 100 µM	> 100 µM				
CCOc1cc(NC(C)=O)ccc1C(=O)NN1C(=O)CSC1c1ccccc1 (configuration not stated)	> 100 µM			> 100 µM					> 100 µM	> 100 µM	> 100 µM				
NNC(=O)c1cc(=O)[nH][nH]1	> 100 µM			> 100 µM					> 100 µM	> 100 µM	> 100 µM				
O=C1Nc2ccccc2/C1=c1\[nH]c(=O)/c(=C\c2ccc(OCc3ccccc3)cn2)[nH]c1=O	> 100 µM			> 100 µM					> 100 µM	> 100 µM	> 100 µM				
N#C[C@H](c1nc2ccccc2s1)c1nc2ccccc2nc1Cl	> 100 µM			> 100 µM					47.3 µM	34.1 µM	> 100 µM				
C[Si](C)(C)C1=C([Si](C)(C)C)C(Cl)(Cl)C1=O	7.14 µM			16.2 µM					32.2 µM	12.5 µM	5.89 µM				
COc1ccc2oc(=O)c(-c3csc(C)n3)cc2c1	> 100 µM			> 100 µM					> 100 µM	> 100 µM	> 100 µM				
c1cnc(N2CCN(Cc3c[nH]c4ccccc34)CC2)nc1	> 100 µM			> 100 µM					> 100 µM	> 100 µM	> 100 µM				
CSc1c(C(=O)Nc2ccc(Cl)cc2)c(N)n(N)c(=O)c1C#N	> 100 µM			> 100 µM					> 100 µM	> 100 µM	> 100 µM				
O=C(OCC(Cl)(Cl)Cl)O[C@@H]1CCCC1(c1ccccc1)c1ccccc1	> 100 µM			> 100 µM					> 100 µM	> 100 µM	> 100 µM				
CN(C)c1cccc(NC2=NCCO2)c1	> 100 µM			> 100 µM					> 100 µM	> 100 µM	> 100 µM				
CCN(CC)c1ccc2cc(C(=O)Nc3ccccn3)c(=N)oc2c1	> 100 µM			> 100 µM					> 100 µM	> 100 µM	> 100 µM				

SMILES	TGI [1]	TGI [2]	TGI [3]	TGI [4]	TGI [5]	TGI [6]	TGI [7]	TGI [8]	TGI [9]	TGI [10]	TGI [11]	TGI [12]	TGI [13]	TGI [14]	TGI [15]
CC1(C)CC(=O)C2=C(C1)OC1=C(CC(C)(C)CC1=O)C2c1ccccc1[N+](=O)[O-] (configuration not stated)	> 100 µM			> 100 µM					> 100 µM	> 100 µM	> 100 µM				
C[C@@H]1S[C@H](c2c(Cl)cccc2Cl)N2Cc3ccccc3N=C12	> 100 µM			> 100 µM					> 100 µM	> 100 µM	> 100 µM				
O=C1C(CN2CCOCC2)CCCC1CN1CCOCC1 (configuration not stated)	1.57 µM	1.83 µM	11.4 µM	10.7 µM	3.2 µM	58.2 µM	2.96 µM	17.3 µM	49 µM	5.44 µM	23.9 µM	5.02 µM	19.4 µM		30.4 µM
COC(=O)c1ccc(Nc2nc3nc[nH]c3c(=O)[nH]2)cc1	> 100 µM			> 100 µM					> 100 µM	> 100 µM	> 100 µM				
O=C1c2cn[nH]c2C(c2ccccc2)N1c1ccccc1 (configuration not stated)	> 10 µM			> 10 µM					> 10 µM	> 10 µM	> 10 µM				
COc1ccccc1C[C@@H]1OC2(C=CC(=O)C=C2)O[C@H]1Cc1ccccc1OC	29.7 µM			13 µM					> 50 µM	19.9 µM	16.1 µM				
O=C(NNc1nc(-c2ccccc2)cs1)C(F)(F)F	> 100 µM			> 100 µM					> 100 µM	> 100 µM	> 100 µM				
CCCC(CCN)(CCN)[N+](=O)[O-]	> 100 µM			> 100 µM					> 100 µM	> 100 µM	> 100 µM				
CC(=O)N1CCn2c1nc1cc(Cl)ccc12	> 100 µM			> 100 µM					> 100 µM	> 100 µM	> 100 µM				
CCOC(=O)C1=C(C)N(c2ccc(OC)cc2)C2(O)C=CC(=O)C3=C(O)c4ccccc4C(=O)C312 (configuration not stated)	26.5 µM			23.4 µM					28 µM	10.9 µM	24.6 µM				
O=C(CCc1ccccc1)ON1C(=S)C(c2ccccc2)(c2ccccc2)N=C1Sc1ccccc1	> 100 µM			> 100 µM					> 100 µM	> 100 µM	> 100 µM				
CCN(CC)c1ccc(/C=C/C=C2C(=O)NC(=S)NC2=O)cc1	> 100 µM			> 100 µM					> 100 µM	> 100 µM	> 100 µM				
N#C/C(=C/NC(=S)c1ccncc1)C(N)=O	> 100 µM			> 100 µM					> 100 µM	> 100 µM	> 100 µM				
COc1cc(C2c3cc4c(cc3OC(NCCO)C2C)OCO4)cc(OC)c1OC (configuration not stated)	> 54.3 µM			> 100 µM					> 100 µM	> 100 µM	13.4 µM				
CCn1c(SCC(=O)NNC(=S)NC)nc2ccccc2c1=O	44.2 µM			> 100 µM					45.7 µM	> 100 µM	> 100 µM				
Clc1ccc(OCc2nn3c(CCc4nnc5sc(COc6ccc(Cl)cc6)nn45)nnc3s2)cc1	12.8 µM			> 100 µM					51.4 µM	57.7 µM	23.7 µM				
COc1cc(C2c3cc4c(cc3OC(N3CCNCC3)C2C)OCO4)cc(OC)c1OC (configuration not stated)	4.29 µM			> 100 µM					10.9 µM	21.6 µM	4.03 µM				
COc1cc(-c2ccccc2N)c2cccnc2c1OC	10.2 µM			13.8 µM					43.4 µM	19.6 µM	26.3 µM				
Cc1ccc2c(c1)C(=O)C(C1OC(=O)c3ccccc31)C2 (configuration not stated)	> 100 µM			> 100 µM					> 100 µM	> 100 µM	> 100 µM				
C[Si](C)(c1ccccc1)[C@H]1CCCC=C1CCNC1c2ccccc2CCc2ccccc21	> 100 µM			> 100 µM					> 100 µM	> 100 µM	> 100 µM				
